Measurements taken from ChEMBL document CHEMBL1201862, “PubChem BioAssay data set” (2004).
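Each compound was tested at five concentrations against cells in 96-well plates for 48 hours. Here, GI50 denotes the concentration required for 50% inhibition of growth.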 Activity calls are given as the source filed them. Rule as the data show it: active = GI50 up to about 1.1 µM and inactive = higher.

Assays:
Assay in all cases: NCI tumour cell line growth inhibition, 48 h
SK-MEL-28 = test system: SK-MEL-28
UO-31 = test system: UO-31
MOLT-4 = test system: MOLT-4
UACC-62 = test system: UACC-62
786-0 = test system: 786-0
SW-620 = test system: SW-620
HL-60 = test system: HL-60
SK-MEL-2 = test system: SK-MEL-2
HCC 2998 = test system: HCC 2998
HOP-62 = test system: HOP-62
U-251 = test system: U-251
COLO 205 = test system: COLO 205
M14 = test system: M14
SR = test system: SR
RXF 393 = test system: RXF 393
CCRF-CEM = test system: CCRF-CEM
HOP-92 = test system: HOP-92
K562 = test system: K562
MCF7 = test system: MCF7
DU-145 = test system: DU-145

Measured: GI50

O=C1Nc2cccc(Cl)c2/C1=C\c1c(Cl)nc2sccn12
inactive: SK-MEL-28 > 100 µM | UO-31 27.7 µM | MOLT-4 > 100 µM | UACC-62 31.5 µM | 786-0 9.31 µM | SW-620 > 100 µM | HL-60 > 100 µM | SK-MEL-2 13.5 µM | HCC 2998 > 100 µM | HOP-62 15 µM | U-251 6.03 µM | COLO 205 > 100 µM | M14 50.2 µM | SR > 100 µM | RXF 393 13.7 µM | CCRF-CEM > 100 µM | HOP-92 16.8 µM | K562 > 100 µM | MCF7 > 100 µM | DU-145 65 µM

Cc1ccc(/C=N\NC(=O)c2ccncc2)s1
inactive: SK-MEL-28 > 100 µM | UO-31 > 100 µM | MOLT-4 > 100 µM | UACC-62 > 100 µM | 786-0 > 100 µM | SW-620 > 100 µM | HL-60 > 100 µM | SK-MEL-2 > 100 µM | HCC 2998 > 100 µM | HOP-62 > 100 µM | U-251 > 100 µM | COLO 205 > 100 µM | M14 > 100 µM | SR > 100 µM | RXF 393 > 100 µM | CCRF-CEM > 100 µM | HOP-92 > 100 µM | K562 > 100 µM | MCF7 > 100 µM | DU-145 > 100 µM

CC1=C(OC2OC(CO)C(O)C(O)C2O)C(=O)C[C@H]2C1=CC[C@@H]1[C@@]2(C)C(=O)C[C@]2(C)[C@@H]([C@@](C)(O)C(=O)CCC(C)(C)O)[C@H](O)C[C@@]12C (stereo not given in full)
inactive: SK-MEL-28 > 100 µM | UO-31 > 100 µM | MOLT-4 > 100 µM | UACC-62 > 100 µM | 786-0 > 100 µM | SW-620 > 100 µM | HL-60 > 100 µM | SK-MEL-2 > 100 µM | HCC 2998 > 100 µM | HOP-62 > 100 µM | U-251 > 100 µM | COLO 205 > 100 µM | M14 > 100 µM | SR > 100 µM | RXF 393 > 100 µM | CCRF-CEM > 100 µM | HOP-92 > 100 µM | K562 > 100 µM | MCF7 > 100 µM | DU-145 > 100 µM

Cc1ccc2nc(Cl)c(/C=N/N3C(=O)/C(=C/Cc4ccco4)N=C3c3ccccc3)cc2c1
inactive: SK-MEL-28 58.7 µM | UO-31 23.7 µM | MOLT-4 58.6 µM | UACC-62 60.5 µM | 786-0 20.4 µM | SW-620 58.1 µM | HL-60 34.1 µM | SK-MEL-2 56.6 µM | HCC 2998 28.6 µM | HOP-62 62.2 µM | U-251 50.8 µM | COLO 205 51.5 µM | M14 27.7 µM | SR > 69.3 µM | RXF 393 2.54 µM | CCRF-CEM > 100 µM | HOP-92 28.9 µM | K562 38.1 µM | MCF7 40.3 µM | DU-145 36.6 µM
